# According to patent publication US8198307B2, “Imidazole derivatives having aryl piperidine substituent, method for preparation thereof and pharmaceutical compositions containing same” (Korea Research Institute of Chemical Technology, priority 2007, dated 2012):
# Molecular target: T1, MCH R1 (melanine-concentrating hormone receptor-1) (Homo sapiens, UniProt Q99705)
# T1 construct: purchased Euroscreen, Gosselies, Belgium
# Assay: Inhibitory effects on MCH R1 binding (Eu-MCH time-resolved fluorescence binding assay)
# Conditions: concentration inhibiting the binding of MCH (Eu-MCH, 2 nM) to MCH R1 by 50% in vitro; TRF readout; test range 1 nM to 10 μM; read-out: IC50
# In short: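 Receptor membranes were incubated 90 min at room temperature with 2 nM Eu-MCH and test compound (1 nM–10 μM final) in 25 mM HEPES pH 7.4, 5 mM MgCl2, 1 mM CaCl2, 0.5% BSA, then filter-washed. Nonspecific binding was defined with 0.5 μM MCH. Time-resolved fluorescence (ex 340/em 615 nm) gave percent inhibition of specific binding.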
# T1 sequence (Q99705 whole entry, species assumed): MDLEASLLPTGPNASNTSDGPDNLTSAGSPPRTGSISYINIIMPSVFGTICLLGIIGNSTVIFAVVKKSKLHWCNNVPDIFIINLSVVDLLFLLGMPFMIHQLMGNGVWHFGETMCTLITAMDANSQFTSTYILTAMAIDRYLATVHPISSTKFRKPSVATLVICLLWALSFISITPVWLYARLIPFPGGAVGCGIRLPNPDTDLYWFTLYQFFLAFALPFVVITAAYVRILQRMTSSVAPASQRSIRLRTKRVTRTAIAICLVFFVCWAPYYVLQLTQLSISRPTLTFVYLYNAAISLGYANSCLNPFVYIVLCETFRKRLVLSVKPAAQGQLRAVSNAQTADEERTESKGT
row,IC50 [nM],Structure (SMILES)
1,2800,"CC(=O)Nc1cccc(C2CCN(CCCn3c(C)nc4ccc(C)nc43)CC2)c1 [Example 91, 2,5-dimethyl-3-{3-[4-(3-acetylaminophenyl)piperidin-1-yl]propyl}-3H-imidazo[4,5-b]pyridine]"
2,188,"CC(=O)Nc1cccc(C2CCN(CCCn3c(C)nc4cc(Br)c(C)nc43)CC2)c1 [Example 92, 6-bromo-2,5-dimethyl-3-{3-[4-(3-acetylaminophenyl)piperidin-1-yl]propyl}-3H-imidazo[4,5-b]pyridine]"
3,98,"CCc1nc2cc(Br)c(C)nc2n1CCCN1CCC(c2cccc(NC(C)=O)c2)CC1 [Example 93, 6-bromo-2-ethyl-5-methyl-3-{3-[4-(3-acetylaminophenyl)piperidin-1-yl]propyl}-3H-imidazo[4,5-b]pyridine]"
4,3,"CCCCc1nc2cc(Br)c(C)nc2n1CCCN1CCC(c2cccc(NC(C)=O)c2)CC1 [Example 94, 6-bromo-2-butyl-5-methyl-3-{3-[4-(3-acetylaminophenyl)piperidin-1-yl]propyl}-3H-imidazo[4,5-b]pyridine]"
5,90,"CCCCc1nc2c(C)cc(C)nc2n1CCCN1CCC(c2cccc(NC(C)=O)c2)CC1 [Example 95, 2-butyl-5,7-dimethyl-3-{3-[4-(3-acetylaminophenyl)piperidin-1-yl]propyl}-3H-imidazo[4,5-b]pyridine]"
6,60,"CCCCc1nc2c(C)c(-c3ccccc3)c(C)nc2n1CCCN1CCC(c2cccc(NC(C)=O)c2)CC1 [Example 96, 2-butyl-5,7-dimethyl-6-phenyl-3-{3-[4-(3-acetylaminophenyl)piperidin-1-yl]propyl}-3H-imidazo[4,5-b]pyridine]"
7,70,"CCCCc1nc2cc(-c3ccccn3)c(C)nc2n1CCCN1CCC(c2cccc(NC(C)=O)c2)CC1 [Example 97, 2-butyl-5-methyl-6-pyridin-2-yl-3-{3-[4-(3-acetylaminophenyl)piperidin-1-yl]propyl}-3H-imidazo[4,5-b]pyridine]"
8,1,"CCCCc1nc2cc(Br)c(C)nc2n1CCCN1CCC(c2cccc(NC(=O)C(C)C)c2)CC1 [Example 98, 6-bromo-2-butyl-5-methyl-3-{3-[4-(3-isobutyrylaminophenyl)piperidin-1-yl]propyl}-3H-imidazo[4,5-b]pyridine]"
9,40,"CCCCc1nc2c(C)cc(C)nc2n1CCCN1CCC(c2cccc(NC(=O)C(C)C)c2)CC1 [Example 99, 2-butyl-5,7-dimethyl-3-{3-[4-(3-isobutyrylaminophenyl)piperidin-1-yl]propyl}-3H-imidazo[4,5-b]pyridine]"
10,320,"CCCCc1nc2c(C)c(-c3ccccc3)c(C)nc2n1CCCN1CCC(c2cccc(NC(=O)C(C)C)c2)CC1 [Example 100, 2-butyl-5,7-dimethyl-6-phenyl-3-{3-[4-(3-isobutyrylaminophenyl)piperidin-1-yl]propyl}-3H-imidazo[4,5-b]pyridine]"
11,40,"CCCCc1nc2cc(-c3ccccn3)c(C)nc2n1CCCN1CCC(c2cccc(NC(=O)C(C)C)c2)CC1 [Example 101, 2-butyl-5-methyl-6-pyridin-2-yl-3-{3-[4-(3-isobutyrylaminophenyl)piperidin-1-yl]propyl}-3H-imidazo[4,5-b]pyridine]"
12,260,"CCCCc1nc2cc(-c3ccccc3)c(C=O)nc2n1CCCN1CCC(c2cccc(NC(=O)C(C)C)c2)CC1 [Example 102, 2-butyl-5-formyl-6-phenyl-3-{3-[4-(3-isobutyrylaminophenyl)piperidin-1-yl]propyl}-3H-imidazo[4,5-b]pyridine]"
13,20,"CCCCc1nc2cc(-c3ccc([N+](=O)[O-])cc3)c(C)nc2n1CCCN1CCC(c2cccc(NC(=O)C(C)C)c2)CC1 [Example 103, 2-butyl-5-methyl-6-(4-nitrophenyl)-3-{3-[4-(3-isobutyrylaminophenyl)piperidin-1-yl]propyl}-3H-imidazo[4,5-b]pyridine]"
14,33,"CC(=O)Nc1cccc(C2CCN(CCCn3c(-c4ccccn4)nc4ccccc43)CC2)c1 [Example 104, 2-(pyridin-2-yl)-1-{3-[4-(3-acetamidophenyl)piperidin-1-yl]propyl}-1H-benzimidazole]"
15,60,"CC(=O)Nc1cccc(C2CCN(CCCn3c(-c4cccnc4)nc4ccccc43)CC2)c1 [Example 105, 2-(pyridin-3-yl)-1-{3-[4-(3-acetamidophenyl)piperidin-1-yl]propyl}-1H-benzimidazole]"
16,150,"CC(=O)Nc1cccc(C2CCN(CCCn3c(-c4ccncc4)nc4ccccc43)CC2)c1 [Example 106, 2-(pyridin-4-yl)-1-{3-[4-(3-acetamidophenyl)piperidin-1-yl]propyl}-1H-benzimidazole]"
17,25,"CC(=O)Nc1cccc(C2CCN(CCCn3c(-c4ccoc4)nc4ccccc43)CC2)c1 [Example 107, 2-(furan-3-yl)-1-{3-[4-(3-acetylaminophenyl)piperidin-1-yl]propyl}-1H-benzimidazole]"
18,3,"CC(=O)Nc1cccc(C2CCN(CCCn3c(-c4ccc(Br)o4)nc4ccccc43)CC2)c1 [Example 108, 2-(5-bromofuran-2-yl)-1-{3-[4-(3-acetylaminophenyl)piperidin-1-yl]propyl}-1H-benzimidazole]"
19,15,"CC(=O)Nc1cccc(C2CCN(CCCn3c(-c4cccs4)nc4ccccc43)CC2)c1 [Example 109, 2-(thiophen-2-yl)-1-{3-[4-(3-acetylaminophenyl)piperidin-1-yl]propyl}-1H-benzimidazole]"
20,14,"CC(=O)Nc1cccc(C2CCN(CCCn3c(-c4ccc(C)s4)nc4ccccc43)CC2)c1 [Example 110, 2-(5-methylthiophen-2-yl)-1-{3-[4-(3-acetylaminophenyl)piperidin-1-yl]propyl}-1H-benzimidazole]"
21,9,"CC(=O)Nc1cccc(C2CCN(CCCn3c(-c4cccn4C)nc4ccccc43)CC2)c1 [Example 111, 2-(1-methylpyrrol-2-yl)-1-{3-[4-(3-acetylaminophenyl)piperidin-1-yl]propyl}-1H-benzimidazole]"
22,5,"CC(=O)Nc1cccc(C2CCN(CCCn3c(-c4cncc(Br)c4)nc4ccccc43)CC2)c1 [Example 112, 2-(5-bromopyridin-3-yl)-1-{3-[4-(3-acetylaminophenyl)piperidin-1-yl]propyl}-1H-benzimidazole]"
23,1,"CC(=O)Nc1cccc(C2CCN(CCCn3c(-c4ccc(Cl)nc4)nc4ccccc43)CC2)c1 [Example 113, 2-(6-chloropyridin-3-yl)-1-{3-[4-(3-acetamidophenyl)piperidin-1-yl]propyl}-1H-benzimidazole]"
24,42,"CC(=O)Nc1cccc(C2CCN(CCCn3c(-c4ccc(C)nc4)nc4ccccc43)CC2)c1 [Example 114, 2-(6-methylpyridin-3-yl)-1-{3-[4-(3-acetamidophenyl)piperidin-1-yl]propyl}-1H-benzimidazole]"
25,67,"COc1ncccc1-c1nc2ccccc2n1CCCN1CCC(c2cccc(NC(C)=O)c2)CC1 [Example 115, 2-(2-methoxypyridin-3-yl)-1-{3-[4-(3-acetamidophenyl)piperidin-1-yl]propyl}-1H-benzimidazole]"
26,48,"CC(=O)Nc1cccc(C2CCN(CCCn3c(-c4cccnc4)nc4cc(Cl)ccc43)CC2)c1 [Example 116, 5-chloro-2-(pyridin-3-yl)-1-{3-[4-(3-acetamidophenyl)piperidin-1-yl]propyl}-1H-benzimidazole]"
